# Measurements taken from patent publication US20100113390A1, “OLIGOSACCHARIDES DERIVED FROM FUCOIDAN” (SUNTORY HOLDINGS LIMITED, priority 2007, published 2010).
# Legend:
# α-glucosidase = assay: Measurement of α-glucosidase activity (p-nitrophenyl-α-D-glucopyranoside substrate, A405 nm); type: biochemical, yeast; conditions: for α-glucosidase inhibitory activity (% inhibition): at 5 mg/ml (samples adjusted to 50 mg/ml H2O), duplicate, FIG. 29
# Procedure: 1. 0.1 M sodium phosphate buffer (a mixture of 0.1 M NaH2PO4.2H2O and 0.1 M Na2HPO4.12H2O, adjusted to pH 7.0) was supplemented with 2 g/L bovine serum albumin (a product of Nacalai Tesque, Inc., Japan, F-V, pH 5.2, purity: 96%) and 0.2 g/L NaN3 (a product of Nacalai Tesque, Inc., Japan, reagent grade). As an enzyme solution, α-glucosidase (a product of Wako Pure Chemical Industries, Ltd., Japan, derived from yeast, 100 units/mg) was dissolved in the above buffer at 0.5 units/mg protein/ml (100 μg/20 ml). As a substrate solution, p-nitrophenyl-α-D-glucopyranoside (a product of Nacalai Tesque, Inc., Japan, reagent grade) was dissolved in the above buffer at 5 mM (7.525 mg/5 ml). 2. For use as samples, GF (I) purified in Example 3 was adjusted to 200 mg/ml H2O and diluted two-fold to give 6 dilutions. Using a 96-well microplate, the enzyme solution (45 μL) was added to each of the sample solutions (10 μL) and pre-incubated at 37° C. for 5 minutes. After addition of the substrate solution (45 μL), each sample was measured for absorbance A405 nm (A405 nm at 0 min) and, after incubation at 37° C. for 5 minutes, was then measured for absorbance A405 nm (A405 nm at 5 min). As a control, H2O was added in place of the samples and measured for absorbance. The difference in A405 nm from the control was calculated as % inhibition. Activity measurement was made in quadruplicate. 3. […] As comparative samples, X2 (xylobiose) and glucuronic acid (Sigma-Aldrich) were neutralized with NaOH and adjusted to 50 mg/ml H2O (calculated based on the amount of glucuronic acid). […] After addition of the substrate solution (45 μl), each of the samples was measured for absorbance A405 nm (A405 nm at 0 min) and, after incubation at 37° C. for 5 minutes, was then measured for absorbance A405 nm (A405 nm at 5 min). As a control, H2O was added in place of the samples, and the difference in A405 nm from the control was calculated as % inhibition. […]
# [1] = target: T1, porcine pancreatic lipase (Sus scrofa, UniProt P00591); assay: Measurement of lipase inhibitory activity (4-methylumbelliferone oleic acid ester, fluorescence); type: biochemical; conditions: at 4 mg/ml final concentration, FIG. 30
# T1 construct: purchased SIGMA
# T1 sequence (P00591 1-450): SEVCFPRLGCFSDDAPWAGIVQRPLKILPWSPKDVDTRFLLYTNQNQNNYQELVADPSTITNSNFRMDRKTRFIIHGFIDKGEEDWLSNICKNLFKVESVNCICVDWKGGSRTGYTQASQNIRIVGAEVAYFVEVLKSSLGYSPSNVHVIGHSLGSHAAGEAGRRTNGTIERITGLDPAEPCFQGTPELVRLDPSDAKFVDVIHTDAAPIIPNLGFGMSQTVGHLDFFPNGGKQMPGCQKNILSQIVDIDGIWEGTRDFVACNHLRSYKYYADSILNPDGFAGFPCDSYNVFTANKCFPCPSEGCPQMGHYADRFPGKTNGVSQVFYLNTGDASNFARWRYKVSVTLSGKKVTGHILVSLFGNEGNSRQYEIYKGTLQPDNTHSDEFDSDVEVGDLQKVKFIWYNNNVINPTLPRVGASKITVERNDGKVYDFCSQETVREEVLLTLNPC
# Procedure: 1. In a 96-well flat-bottomed plate, GF (I) prepared in Example 3, as well as the GSFaF (VII)-containing fraction and the GSF fraction containing (V) and GSFF (VI) prepared in Example 4 were each adjusted to give a final concentration of 4 mg/ml (25 μl), followed by addition of 50 μl buffer (130 mM Tris-HCl buffer (pH 8.0, containing 150 mM NaCl and 1.36 mM CaCl2)) and 25 μl 4-methylumbelliferone oleic acid ester (SIGMA, final concentration: 100 μM). The plate was allowed to stand for 30 minutes at room temperature. Then, lipase (porcine pancreatic lipase, SIGMA) was added in a volume of 50 μl (final concentration: 100 U/ml) to initiate the reaction. 2. After 30 minutes, 100 μl citrate buffer (pH 4.2) was added to stop the reaction. The fluorescence intensity of 4-methylumbelliferone generated by the reaction (excitation wavelength: 355 nm, fluorescence wavelength: 460 nm) was measured with a fluorescence plate reader (Fluoroskan Asent CF, Labsystems). 3. As a control, water was used in place of the samples. As a blank, water was used in place of the samples and buffer was used in place of lipase. The following equation was used to calculate lipase inhibitory activity. 4. Calculation equation
# Lipase inhibitory activity (%)=100−(A−B)/(C−B)×100
# A: fluorescence intensity in sample, B: fluorescence intensity in blank, C: fluorescence intensity in control
SMILES,α-glucosidase inhibitory activity (% inhibition) (α-glucosidase),"α-glucosidase IC50 (α-glucosidase; GF (I) purified in Example 3, 6 two-fold dilutions, quadruplicate)",inhibition at 4000 µg/mL [1]
"OC1OC[C@@H](O[C@@H]2OC[C@@H](O)[C@H](O)[C@H]2O)[C@H](O)[C@H]1O (stereo partly shown) [X2, xylobiose]",10.15%,–,–
O=C(O)[C@H]1OC(O)[C@H](O)[C@@H](O)[C@@H]1O (stereo partly shown) [glucuronic acid],8%,–,–
"CC1OC(O)C(OC2OC(C(=O)O)C(O)C(O)C2O)C(O)C1O [GF (I), α-D-GlcA-(1→2)-L-Fuc]",–,20.4 mg/mL,81%
